Experimental data published in patent US7655624B2, “Peptide and peptide mimetic conjugates with integrin-inhibitor properties” (Biomet Deutschland GmbH, priority 2000, dated 2010).

Tested on: mouse MC3T3 H1 osteoblast cultures
Test: Cell adhesion test on RGD-peptide-coated material surfaces
Format: cell-based
Settings: adhered cells/inoculated cells x 100; 50 000 cells/cm^2 inoculated on peptide-coated material surface; serum-free medium, 37° C./95% atmospheric humidity, one hour
Description: The shaped articles are transferred into 48 wells (Costar, “non-tissue culture treated” Art. No. 3574). To attach the bioactive, cell adhesion-mediating molecules B (where B can be a cyclopeptide, peptide mimetic or linear peptide according to claim 2) to the prepared shaped articles, molecule B-containing stock solutions (“B solutions”) are prepared in a final concentration of 1 mM in one of the aqueous buffers Tris-HCl (10 mM, pH 8.7), Tris-HClO4 (10 mM, pH 8.7) or PBS, pH 7.4. Concentration series with the “B solutions” final concentrations of in each case 1 nm, 10 nm, 100 nm, 1 μm, 10 μm and 100 μm are then prepared by dilution with PBS, pH 7.4. The shaped articles are each covered with 250 μl of the respective B solution and then incubated at room temperature for 18-24 hours. To remove unbound B molecules, the samples are washed three times with PBS, pH 7.4, and stored in PBS, pH 7.4, at 4° C. overnight. […]
The adhesion of mouse MC3T3 H1 osteoblast cultures in vitro to RGD-peptide-coated material surfaces was investigated. In this test, 50 000 cells/cm^2 were inoculated and, after incubation in serum-free medium at 37° C./95% atmospheric humidity for one hour, the proportion of adhered cells was determined. […]

Substance | cell adhesion rate [%]
Cyclo-(Arg-Gly-Asp-DPhe-Lys (N^εH—[CO—(CH2)5—NH]3-Lys-[Lys-(CO—CH2—CH2—PO3H2)2]2) [Example 5] | 62
Cyclo-(Arg-Gly-Asp-DPhe-Lys (N^εH[CO—(CH2)5—NH]2-Lys-[Lys-(CO—CH2—CH2—PO3H2)2]2)) [Example 4] | 75
